From patent US7786043B2, “2-(pyridin-2-yl)-pyrimidines and their use for controlling harmful fungi” (BASF Aktiengesellschaft, priority 2004, dated 2010) come the findings set out here.

Assay type in all cases: in vivo
One assay deals with Puccinia recondita. In words: Use Example 5: curative activity against brown rust of wheat caused by Puccinia recondita. Particulars: 250 ppm, wheat seedlings, curative (sprayed one day after inoculation), 7 days; untreated plants 90% infected. The protocol: (§1) For the use examples 1 to 5 the active compounds were prepared separately as a stock solution with 0.25% by weight of active compound in acetone or DMSO. 1% by weight of the emulsifier Wettol® EM 31 (wetting agent having emulsifying and dispersing action based on ethoxylated alkylphenols) was added to this solution, and the solution was diluted with water to the desired concentration.
Leaves of potted wheat seedlings of the cultivar “Kanzler” were inoculated with a spore suspension of brown rust (Puccinia recondita). The pots were then placed in a chamber at high atmospheric humidity (90 to 95%) and 20 to 22° C. for 24 hours. During this time, the spores germinated and the germ tubes penetrated into the leaf tissue. The next day, the infected plants were sprayed to runoff point with an aqueous suspension having the active compound concentration stated below. The suspension or emulsion had been prepared as described above. After the spray coating had dried, the test plants were cultivated in a greenhouse at temperatures between 20 and 22° C. and at 65 to 70% relative atmospheric humidity for 7 days. The extent of the rust fungus development on the leaves was then determined.

The subject of the next assay is Alternaria solani. In words: Use Example 1: activity against early blight caused by Alternaria solani (tomato plants). Particulars: 250 ppm, tomato plants sprayed one day before infection, rated after 5 days; untreated plants 90% infected.
The subject of assay [1] is Erysiphe [syn. Blumeria] graminis forma specialis. tritici. In words: Use Example 3: activity against mildew of wheat caused by Erysiphe [syn. Blumeria] graminis forma specialis tritici. Particulars: 250 ppm, wheat seedlings, protective, rated after 7 days; untreated plants 90% infected. The procedure:
as §1
Leaves of potted wheat seedlings of the cultiva “Kanzler” were sprayed to runoff point with an aqueous suspension having the concentration of active compounds stated below. 24 h after the spray coating had dried on, the leaves were dusted with the spores of mildew of wheat (Erysiphe [syn. Blumeria] graminis form a specialis. tritici). The plants were then placed in a greenhouse at temperatures between 20 and 24° C. and at 60-90% relative atmospheric humidity. After 7 days, the extent of the fungal infection was determined visually by the infected leaf area.

A further assay relates to Plasmopara viticola. In words: Use Example 4: activity against peronospora of grapevines caused by Plasmopara viticola. Conditions: 63 ppm, potted grapevines, protective; untreated plants 90% infected. The procedure: as §1
Leaves of potted grapevines were sprayed to runoff point with an aqueous suspension having the concentration of active compounds stated below. The next day, the undersides of the leaves were inoculated with an aqueous sporangia suspension of Plasmopara viticola. The plants were then initially placed in a water-vapor-saturated chamber for 48 h and then in a greenhouse at temperatures between 20 and 30° C. After this period of time, the plants were, to promote sporangial eruption, again placed in the water-vapor-saturated chamber for 16 h. The extent of the development of the infection on the undersides of the leaves was then determined.

In a further assay the test system is Botrytis cinerea. In words: Use Example 2: activity against gray mold on bell pepper leaves caused by Botrytis cinerea, protective application. Particulars: 250 ppm, rated after 5 days, untreated plants 90% infected. The protocol:
as §1
Bell pepper leaves of the cultiva “Neusiedler Ideal Elite” were, after 2 to 3 leaves had become well developed, sprayed to runoff point with an aqueous suspension having the concentration of active compounds stated below. The next day, the treated plants were inoculated with an aqueous spore suspension of Botrytis cinerea in a 2% aqueous biomalt solution having a density of 1.7×10^6 spores/ml. The plants were then placed in a climatized chamber at temperatures between 22 and 24° C. and at high atmospheric humidity. After 5 days, the extent of the fungal infection was determined visually by the infected leaf area.

In the case of `Cc1ccc(-c2ncc3c(n2)CCCC3)nc1-c1ccc(F)cc1` [2-(5-methyl-6-(4-fluorophenyl)pyridin-2-yl)-5,6,7,8-tetrahydroquinazoline, reference compound], the “infection (rust fungus development)” value in the assay on Puccinia recondita stood at 50%. Also, the infection in the assay with Alternaria solani is recorded as 80%; in the assay on Plasmopara viticola it was 70%. Besides, the “infection (infected leaf area)” value in assay [1] is given as 80%.

Consider `Cc1ccc(-c2ncc3c(n2)CCCCC3)nc1-c1ccccc1` [Example 1, 2-(5-methyl-6-phenylpyridin-2-yl)-6,7,8,9-tetrahydro-5H-cycloheptapyrimidine], for which the infection result in the assay with Alternaria solani is listed as “no infection”.

On to `Cc1ccc(-c2ncc3c(n2)CCCCC3)nc1-c1ccccc1` [Example 6], for which the “infection (infected leaf area)” value with Botrytis cinerea was “no infection”.

Consider `Fc1ccc(-c2cccc(-c3ncc4c(n3)CCCCC4)n2)cc1` [Example 7], for which the infection result with Alternaria solani and in the assay on Plasmopara viticola was “no infection” throughout. For the same molecule, the figures for the “infection (infected leaf area)” value (in assay [1]; in the assay on Botrytis cinerea) were 20% and “no infection”, respectively.

As for `Cc1ccc(-c2ncc3c(n2)CCCCC3)nc1-c1ccc(F)cc1` [Example 9], in the assay with Puccinia recondita, the “infection (rust fungus development)” value was 20%. Besides, in the assay on Alternaria solani, the infection result is recorded as “no infection”.

For `c1ccc(-c2cccc(-c3ncc4c(n3)CCCCCC4)n2)cc1` [Example 11], the infection entry with Alternaria solani was “no infection”. In the assay on Botrytis cinerea, the “infection (infected leaf area)” value was “no infection”.
